We go through 1 compound from article PMC10294771 (Journal of Enzyme Inhibition and Medicinal Chemistry, 2023).

This assay deals with HCT-116 cells. In words: In vitro cytotoxicity assay. In kind it is cell-based. The note with it: Homo sapiens, HCT-116, 72 h, read-out: IC50, HCT-116 cell proliferation.

As to `C[C@H](O)C(=O)N1CCC(CCn2c(Sc3cc4c(cc3Br)OCO4)nc3c(N)ncnc32)CC1` [MPC-3100, (2S)-1-[4-(2-{6-amino-8-[(6-bromo-1,3-benzodioxol-5-yl)sulfanyl]-9H-purin-9-yl}ethyl)piperidin-1-yl]-2-hydroxypropan-1-one], the IC50 worked out at 780 nM.
